Source: ChEMBL document CHEMBL1201862, “PubChem BioAssay data set” (2004)
Calls of active or inactive are those of the source.

Tests used:
[1] = CAL PDZ domain peptide-binding inhibitors, dose response, biochemical, fluorescence polarization, untagged CAL PDZ, cherry-pick, set 2 (AID 602254); type: functional
[2] = HEp-2 cell cytotoxicity, dose response, cytotoxicity control for RSV inhibitor project, HTS (AID 2410); type: functional; conditions: human respiratory syncytial virus
Interleukin-8 = Interleukin-8 (Homo sapiens, UniProt P10145); test: Dose Response confirmation of uHTS small molecule hits for cystic fibrosis induced NFkb Inhibitors in a PAF-induced IL8 counterscreen.; type: functional; conditions: read-out: IC50_Mean
[3] = target: T1, Voltage-gated N-type calcium channel alpha-1B subunit/Amyloid beta A4 precursor protein-binding family A member 1 (Homo sapiens, UniProt Q00975+Q02410); type: protein assay
[4] = target: T1, Voltage-gated N-type calcium channel alpha-1B subunit/Amyloid beta A4 precursor protein-binding family A member 1; type: protein assay; remark: listed apart in the source
[5] = target: T2, Carboxy-terminal domain RNA polymerase II polypeptide A small phosphatase 1 (Homo sapiens, UniProt Q9GZU7); test: inhibitors of CTDSP1, concentration-response testing, biochemical assay, absorbance-based, actives from ultra-high-throughput screening (AID 540297); type: functional
T2 sequence (Q9GZU7 whole entry): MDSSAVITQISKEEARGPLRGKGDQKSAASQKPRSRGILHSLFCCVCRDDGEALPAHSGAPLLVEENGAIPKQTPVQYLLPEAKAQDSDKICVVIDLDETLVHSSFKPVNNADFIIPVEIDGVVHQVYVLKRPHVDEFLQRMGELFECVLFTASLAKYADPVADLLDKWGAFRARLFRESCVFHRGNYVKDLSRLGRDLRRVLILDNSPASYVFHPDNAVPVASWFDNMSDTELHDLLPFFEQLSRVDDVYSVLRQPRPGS

[6] = target: T3, Tyrosine-protein phosphatase non-receptor type 22 (Homo sapiens, UniProt Q9Y2R2); test: LYP phosphatase inhibition for selectivity, dose response, selectivity assay for LMPTP inhibitor project, biochemical, fluorescence, LYP catalytic domain (AID 652006); type: functional; conditions: read-out: IC50_Mean
T3 sequence (Q9Y2R2 whole entry): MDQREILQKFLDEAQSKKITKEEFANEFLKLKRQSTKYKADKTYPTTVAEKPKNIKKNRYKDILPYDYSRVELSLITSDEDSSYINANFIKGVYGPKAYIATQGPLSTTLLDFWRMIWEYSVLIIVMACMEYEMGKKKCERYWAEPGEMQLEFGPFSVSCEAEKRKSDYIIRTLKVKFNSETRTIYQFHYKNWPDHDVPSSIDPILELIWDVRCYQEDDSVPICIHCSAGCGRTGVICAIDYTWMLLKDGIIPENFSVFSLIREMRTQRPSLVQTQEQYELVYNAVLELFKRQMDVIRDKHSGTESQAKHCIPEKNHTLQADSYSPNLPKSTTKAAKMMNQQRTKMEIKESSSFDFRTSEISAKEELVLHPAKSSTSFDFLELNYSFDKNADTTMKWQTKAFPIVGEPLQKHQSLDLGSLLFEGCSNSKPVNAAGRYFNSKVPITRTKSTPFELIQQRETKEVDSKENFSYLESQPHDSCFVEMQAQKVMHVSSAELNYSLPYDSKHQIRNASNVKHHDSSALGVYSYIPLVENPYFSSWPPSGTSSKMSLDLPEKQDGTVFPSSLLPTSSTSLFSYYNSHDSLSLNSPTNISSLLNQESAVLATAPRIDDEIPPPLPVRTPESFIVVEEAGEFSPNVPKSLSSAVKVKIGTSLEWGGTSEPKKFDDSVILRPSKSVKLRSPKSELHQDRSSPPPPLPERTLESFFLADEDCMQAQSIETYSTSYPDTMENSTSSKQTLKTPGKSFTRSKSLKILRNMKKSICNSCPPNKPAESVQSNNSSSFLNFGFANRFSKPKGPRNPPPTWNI

[7] = target: T4, Low molecular weight phosphotyrosine protein phosphatase (Homo sapiens, UniProt P24666); type: functional; conditions: read-out: IC50_Mean;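 note: Dose-response confirmation assay measuring inhibition of LMPTP enzyme activity by fluorescence intensity read-out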
T4 sequence (P24666 whole entry): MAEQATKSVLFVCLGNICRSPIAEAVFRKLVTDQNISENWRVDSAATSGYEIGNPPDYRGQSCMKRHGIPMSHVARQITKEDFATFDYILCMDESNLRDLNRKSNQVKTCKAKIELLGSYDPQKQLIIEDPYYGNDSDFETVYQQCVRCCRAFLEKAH

[8] = HepG2 cell cytotoxicity, dose response, cytotoxicity control for Shn3 inhibitor project, CellTiter-Glo, cherry-picked (AID 624134); type: functional, cell-based
[9] = cytotoxicity in HEK-293T NF-kB-Luc cells, dose response, cytotoxicity control for B/T-cell NF-kB inhibitor project, cell-based, uHTS hits (AID 489019); type: functional;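 note: IC50 reflects cytotoxicity as loss of cell viability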
Protein Wnt-3a = Protein Wnt-3a (Mus musculus, UniProt P27467); test: Wnt3a-driven reporter signaling inhibition, dose response, selectivity assay for Gli-SUFU antagonist project, Wnt-LIGHT cells, luminescence (AID 651570); type: functional; conditions: read-out: IC50_Mean;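 note: Wnt-LIGHT reporter cells stimulated with conditioned medium from Wnt3a-producing cells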
[10] = HEK293T cytotoxicity, dose response, cytotoxicity control for miR-122 modulator project, cell-based, activator set, cherry-pick (AID 720690); type: functional;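 note: HEK293T human cells scored for general mammalian cytotoxicity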
[11] = control 3'UTR Renilla luciferase suppression, dose response, counter-screen for Shn3 inhibitor project, cell-based, Clone20-Shn3RL, cherry-picked (AID 624133); type: functional
[12] = HEK293T cytotoxicity, dose response, cytotoxicity control for miR-122 modulator project, cell-based, inhibitor set, cherry-pick, set 2 (AID 720697); type: functional
[13] = target: T5, COUP transcription factor 2 (Homo sapiens, UniProt P24468); test: Luminescence-based cell-based high throughput dose response assay to identify inhibitors of COUP-TFII (NR2F2).; type: functional;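 note: HEK293 cells transiently cotransfected with COUP-TFII expression vector and reporter; luciferase reporter luminescence driven by COUP-TFII from the pX2-168 reporter plasmid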
T5 sequence (P24468 whole entry): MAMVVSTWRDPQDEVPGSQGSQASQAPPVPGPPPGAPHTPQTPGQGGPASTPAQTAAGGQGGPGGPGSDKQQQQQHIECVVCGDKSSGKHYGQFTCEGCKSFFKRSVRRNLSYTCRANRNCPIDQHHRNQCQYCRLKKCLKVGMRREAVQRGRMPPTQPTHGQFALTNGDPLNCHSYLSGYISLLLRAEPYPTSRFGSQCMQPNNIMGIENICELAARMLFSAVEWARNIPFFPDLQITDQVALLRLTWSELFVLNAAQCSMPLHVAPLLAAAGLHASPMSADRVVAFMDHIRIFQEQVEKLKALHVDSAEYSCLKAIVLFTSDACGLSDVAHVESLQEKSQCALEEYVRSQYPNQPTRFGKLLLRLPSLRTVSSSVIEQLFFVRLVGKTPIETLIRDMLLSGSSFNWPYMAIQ

[14] = inhibitors of clade B AD8 Env fusion, dose response, cell-based, cherry-pick (AID 652062); type: functional;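 note: luciferase signal from cell-cell fusion driven by HIV-1 clade B AD8 Env; potency is for inhibitors of fusion seen as a drop in luminescence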
[15] = microbe, parasite or virus in culture; type: functional; conditions: Mycobacterium tuberculosis
INS1 = test: beta cell apoptosis inhibitors, cytokine rescue, dose response, luminescence, retest (AID 449756); type: functional, cell-based; conditions: Rattus norvegicus;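 note: cell death triggered by IL-1 beta plus TNF-alpha plus IFN-gamma mixture; protective hits raise ATP signal compared with cytokine alone wells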
[16] = Shn3 3'UTR reporter inhibitors, dose response, cell-based, Clone20 osteoblasts, firefly luciferase, cherry-picked (AID 624132); type: functional;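 note: firefly luciferase luminescence from reporter carrying the Shn3 3'UTR in osteoblasts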
Jurkat = test: antigen receptor-induced NF-kB inhibitors, dose response, Jurkat, luciferase reporter, luminescence, B- and T-cell (AID 489004); type: functional, cell-based; conditions: Homo sapiens;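 note: NF-kB luciferase reporter Jurkat cells stimulated with PMA plus ionomycin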
[17] = target: T6, ATP-dependent translocase ABCB1 (Homo sapiens, UniProt P08183); test: ABCG2 efflux pump inhibitor potency, dose response, Ig-MXP3 cells, JC-1, flow cytometry, set 2 (AID 504566); type: functional; conditions: read-out: EC50_MICROM_;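 note: flow cytometry median green fluorescence of retained JC-1 dye; potency of efflux pump inhibition measured as rising substrate retention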
[18] = target: T6, ATP-dependent translocase ABCB1; test: ABCB1 efflux inhibitor potency, dose response, Jurkat-DNR cells, JC-1, flow cytometry, set 2 (AID 504569); type: functional; conditions: read-out: EC50_MICROM_;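 note: potency of pump inhibitors that raise cellular JC-1 green fluorescence up to the nicardipine level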
[19] = target: Adenosylmethionine-8-amino-7-oxononanoate aminotransferase (Mycobacterium tuberculosis, UniProt P9WQ81); test: Mycobacterium tuberculosis BioA enzyme inhibitor Measured in Biochemical System Using Plate Reader - 2163-02_Inhibitor_Dose_CherryPick_Activity.; type: functional, Mycobacterium tuberculosis UT205
Adenosylmethionine-8-amino-7-oxononanoate aminotransferase, sequence (P9WQ81 whole entry): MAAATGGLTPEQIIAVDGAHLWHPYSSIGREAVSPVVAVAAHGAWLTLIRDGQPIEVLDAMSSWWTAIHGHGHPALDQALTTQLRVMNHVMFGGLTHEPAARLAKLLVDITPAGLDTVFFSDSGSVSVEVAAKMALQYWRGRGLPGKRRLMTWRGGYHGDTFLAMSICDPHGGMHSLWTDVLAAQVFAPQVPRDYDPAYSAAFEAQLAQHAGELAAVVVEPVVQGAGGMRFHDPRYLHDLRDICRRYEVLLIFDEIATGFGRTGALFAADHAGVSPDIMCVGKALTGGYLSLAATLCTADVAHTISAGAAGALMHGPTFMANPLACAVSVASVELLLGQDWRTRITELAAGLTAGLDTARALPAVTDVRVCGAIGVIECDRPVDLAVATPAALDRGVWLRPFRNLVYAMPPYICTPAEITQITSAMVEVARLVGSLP

T1 sequence (Q00975 whole entry): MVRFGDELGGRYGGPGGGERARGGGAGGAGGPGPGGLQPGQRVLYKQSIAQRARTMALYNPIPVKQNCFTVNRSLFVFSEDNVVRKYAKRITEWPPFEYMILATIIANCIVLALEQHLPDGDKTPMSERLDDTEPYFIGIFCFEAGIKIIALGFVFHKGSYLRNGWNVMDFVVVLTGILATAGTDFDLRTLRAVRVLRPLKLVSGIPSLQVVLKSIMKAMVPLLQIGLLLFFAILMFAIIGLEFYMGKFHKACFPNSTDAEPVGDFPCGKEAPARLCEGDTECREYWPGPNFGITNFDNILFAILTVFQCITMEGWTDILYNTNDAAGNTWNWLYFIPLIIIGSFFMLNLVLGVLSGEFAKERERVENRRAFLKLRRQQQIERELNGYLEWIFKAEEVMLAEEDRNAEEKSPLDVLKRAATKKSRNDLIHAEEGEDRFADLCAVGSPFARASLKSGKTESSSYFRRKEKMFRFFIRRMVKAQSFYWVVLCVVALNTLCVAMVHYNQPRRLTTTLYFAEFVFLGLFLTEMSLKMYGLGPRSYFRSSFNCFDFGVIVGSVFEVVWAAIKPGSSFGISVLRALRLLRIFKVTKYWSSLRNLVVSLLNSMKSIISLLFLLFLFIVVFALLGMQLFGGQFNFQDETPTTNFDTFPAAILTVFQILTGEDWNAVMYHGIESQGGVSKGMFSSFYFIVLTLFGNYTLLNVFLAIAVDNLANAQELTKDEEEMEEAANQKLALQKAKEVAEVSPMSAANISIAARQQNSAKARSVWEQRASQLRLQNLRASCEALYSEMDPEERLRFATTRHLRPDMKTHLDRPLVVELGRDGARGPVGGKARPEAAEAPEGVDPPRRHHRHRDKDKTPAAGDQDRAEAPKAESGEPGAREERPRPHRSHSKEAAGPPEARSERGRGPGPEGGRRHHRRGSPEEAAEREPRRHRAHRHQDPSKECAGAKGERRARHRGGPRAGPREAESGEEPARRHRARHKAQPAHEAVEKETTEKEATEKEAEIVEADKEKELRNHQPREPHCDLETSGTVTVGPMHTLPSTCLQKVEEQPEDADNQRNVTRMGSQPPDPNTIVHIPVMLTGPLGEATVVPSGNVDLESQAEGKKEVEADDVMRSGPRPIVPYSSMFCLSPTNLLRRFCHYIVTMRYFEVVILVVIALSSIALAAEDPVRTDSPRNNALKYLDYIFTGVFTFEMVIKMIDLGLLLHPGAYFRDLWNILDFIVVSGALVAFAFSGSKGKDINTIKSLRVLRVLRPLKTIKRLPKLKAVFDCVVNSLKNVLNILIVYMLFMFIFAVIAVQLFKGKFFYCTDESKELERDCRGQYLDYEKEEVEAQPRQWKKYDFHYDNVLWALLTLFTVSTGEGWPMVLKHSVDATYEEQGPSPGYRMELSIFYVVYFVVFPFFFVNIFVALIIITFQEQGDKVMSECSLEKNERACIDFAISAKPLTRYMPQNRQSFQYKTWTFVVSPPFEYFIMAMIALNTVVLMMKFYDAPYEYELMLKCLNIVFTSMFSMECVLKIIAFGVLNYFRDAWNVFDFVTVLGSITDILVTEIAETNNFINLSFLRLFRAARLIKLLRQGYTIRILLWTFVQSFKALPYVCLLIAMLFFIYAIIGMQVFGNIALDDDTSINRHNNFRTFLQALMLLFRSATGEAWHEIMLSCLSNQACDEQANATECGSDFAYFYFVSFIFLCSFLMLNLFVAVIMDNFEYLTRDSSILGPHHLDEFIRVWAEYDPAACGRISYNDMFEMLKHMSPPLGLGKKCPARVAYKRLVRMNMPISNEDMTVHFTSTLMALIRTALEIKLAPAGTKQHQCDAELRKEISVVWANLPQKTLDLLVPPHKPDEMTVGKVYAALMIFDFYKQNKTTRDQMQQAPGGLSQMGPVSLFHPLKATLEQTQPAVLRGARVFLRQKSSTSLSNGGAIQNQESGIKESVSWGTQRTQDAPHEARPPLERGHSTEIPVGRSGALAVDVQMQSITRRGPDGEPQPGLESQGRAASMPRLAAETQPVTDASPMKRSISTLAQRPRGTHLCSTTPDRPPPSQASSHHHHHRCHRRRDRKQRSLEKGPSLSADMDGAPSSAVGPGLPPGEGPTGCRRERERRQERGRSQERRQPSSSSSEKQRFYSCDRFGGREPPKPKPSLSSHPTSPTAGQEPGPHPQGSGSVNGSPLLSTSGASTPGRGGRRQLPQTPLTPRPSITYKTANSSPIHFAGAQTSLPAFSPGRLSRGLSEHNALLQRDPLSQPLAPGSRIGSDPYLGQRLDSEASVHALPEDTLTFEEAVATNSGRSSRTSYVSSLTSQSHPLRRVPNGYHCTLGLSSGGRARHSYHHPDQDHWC
T1 sequence (Q02410 whole entry): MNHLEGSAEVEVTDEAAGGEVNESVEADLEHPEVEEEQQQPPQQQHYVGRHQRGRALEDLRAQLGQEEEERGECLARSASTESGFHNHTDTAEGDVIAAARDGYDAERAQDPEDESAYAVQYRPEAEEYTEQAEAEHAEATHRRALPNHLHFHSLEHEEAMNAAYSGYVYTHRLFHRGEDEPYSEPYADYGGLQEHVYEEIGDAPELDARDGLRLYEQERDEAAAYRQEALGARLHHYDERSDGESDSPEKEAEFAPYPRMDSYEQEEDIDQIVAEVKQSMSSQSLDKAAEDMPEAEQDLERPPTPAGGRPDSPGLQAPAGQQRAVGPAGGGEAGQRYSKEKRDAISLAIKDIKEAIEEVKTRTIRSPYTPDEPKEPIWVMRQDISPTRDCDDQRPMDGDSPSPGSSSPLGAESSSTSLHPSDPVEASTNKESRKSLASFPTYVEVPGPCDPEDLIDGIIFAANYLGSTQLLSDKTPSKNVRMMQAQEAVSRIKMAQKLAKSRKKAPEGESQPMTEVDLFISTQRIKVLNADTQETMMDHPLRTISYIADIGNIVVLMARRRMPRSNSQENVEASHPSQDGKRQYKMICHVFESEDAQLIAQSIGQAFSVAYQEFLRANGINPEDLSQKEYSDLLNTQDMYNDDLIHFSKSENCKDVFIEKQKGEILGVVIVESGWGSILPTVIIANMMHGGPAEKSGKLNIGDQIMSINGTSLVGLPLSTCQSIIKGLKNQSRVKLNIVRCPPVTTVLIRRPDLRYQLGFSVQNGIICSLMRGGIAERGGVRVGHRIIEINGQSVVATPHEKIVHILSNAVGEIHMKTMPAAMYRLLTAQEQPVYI
T6 sequence (P08183 whole entry): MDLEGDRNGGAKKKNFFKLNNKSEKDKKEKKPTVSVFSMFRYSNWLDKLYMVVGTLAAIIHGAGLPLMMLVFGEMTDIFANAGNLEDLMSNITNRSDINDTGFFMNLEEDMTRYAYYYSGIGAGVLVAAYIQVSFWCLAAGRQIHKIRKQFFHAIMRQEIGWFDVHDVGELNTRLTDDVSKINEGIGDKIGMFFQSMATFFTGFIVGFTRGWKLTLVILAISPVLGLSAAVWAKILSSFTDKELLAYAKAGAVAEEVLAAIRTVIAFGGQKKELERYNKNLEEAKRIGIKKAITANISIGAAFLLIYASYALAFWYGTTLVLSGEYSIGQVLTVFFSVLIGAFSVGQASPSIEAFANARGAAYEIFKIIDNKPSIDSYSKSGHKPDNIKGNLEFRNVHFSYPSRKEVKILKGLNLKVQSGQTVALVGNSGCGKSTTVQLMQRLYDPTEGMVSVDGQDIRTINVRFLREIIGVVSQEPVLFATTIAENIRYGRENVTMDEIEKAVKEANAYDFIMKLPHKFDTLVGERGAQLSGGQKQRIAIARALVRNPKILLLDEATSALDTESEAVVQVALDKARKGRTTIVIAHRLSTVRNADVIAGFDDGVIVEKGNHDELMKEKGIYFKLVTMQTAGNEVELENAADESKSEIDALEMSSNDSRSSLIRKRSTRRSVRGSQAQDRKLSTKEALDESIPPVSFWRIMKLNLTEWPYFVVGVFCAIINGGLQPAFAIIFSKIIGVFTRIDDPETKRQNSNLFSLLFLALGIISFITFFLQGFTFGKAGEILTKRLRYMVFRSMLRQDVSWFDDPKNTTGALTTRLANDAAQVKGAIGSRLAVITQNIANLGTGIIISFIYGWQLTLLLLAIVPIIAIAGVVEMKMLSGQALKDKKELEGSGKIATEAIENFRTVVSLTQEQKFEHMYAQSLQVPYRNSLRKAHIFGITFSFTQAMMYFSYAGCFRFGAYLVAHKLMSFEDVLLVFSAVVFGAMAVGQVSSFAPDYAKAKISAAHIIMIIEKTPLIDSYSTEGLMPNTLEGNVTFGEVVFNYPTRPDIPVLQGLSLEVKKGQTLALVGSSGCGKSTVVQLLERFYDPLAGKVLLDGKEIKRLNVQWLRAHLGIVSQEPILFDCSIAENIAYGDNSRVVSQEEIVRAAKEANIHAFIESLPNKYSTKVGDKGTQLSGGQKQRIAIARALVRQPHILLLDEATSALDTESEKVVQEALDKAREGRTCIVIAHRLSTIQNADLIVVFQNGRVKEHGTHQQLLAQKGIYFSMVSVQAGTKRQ
Interleukin-8, sequence (P10145 whole entry): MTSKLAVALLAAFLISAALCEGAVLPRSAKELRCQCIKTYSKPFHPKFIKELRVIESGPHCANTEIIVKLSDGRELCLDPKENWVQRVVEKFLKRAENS

**Q.** Which AC50 [1] does the source give for `CC(C)(C)c1ccc(/C=N/N2CCN(c3ccccn3)CC2)cc1` here?
**A.** 91.5 µM (active)

**Q.** Which CC50 [2] does the source give for `CC(C)C[C@H](CO)Nc1nc(Nc2cccc(Cl)c2)c2ncn(C(C)C)c2n1` here?
**A.** 44.4 µM (active)

**Q.** And the IC50 (Interleukin-8)?
**A.** 5.97 µM (active)

**Q.** What does the source list for `NS(=O)(=O)c1ccc(CNC(=O)Cc2cccs2)cc1`?
**A.** IC50 [3]: 3.86 µM (active); IC50 [4]: > 50 µM (inactive); IC50 [5]: 4.18 µM (active); IC50 [6]: 56.1 µM (inactive); IC50 [7]: 20.7 µM (inactive)

**Q.** For `Cc1ccc(OCCN2CCN(c3ncnc4sc(C)c(C)c34)CC2)cc1`, which AC50 [8] is on record?
**A.** 1.5 µM (active)

**Q.** And the IC50 [9]?
**A.** > 80 µM (inactive)

**Q.** What about the IC50 (Protein Wnt-3a) of the same compound?
**A.** 0.282 µM (active)

**Q.** What about the AC50 [10] of the same compound?
**A.** 33.6 µM (active)

**Q.** What about the AC50 [11] of the same compound?
**A.** 2.05 µM (active)

**Q.** What about the AC50 [12] of the same compound?
**A.** 13.6 µM (active)

**Q.** What about the IC50 [13] of the same compound?
**A.** 4.98 µM (active)

**Q.** What about the AC50 [14] of the same compound?
**A.** 1.78 µM (active)

**Q.** And the CC50 [15]?
**A.** > 40 µM (active)

**Q.** And the AC50 (INS1)?
**A.** 2.36 µM (active)

**Q.** What about the AC50 [16] of the same compound?
**A.** 0.754 µM (active)

**Q.** And the IC50 (Jurkat)?
**A.** > 80 µM (inactive)

**Q.** Which EC50 [17] does the source give for `COc1ccccc1C(=O)N1CCN(c2cc(-c3ccccc3)nc3cc(-c4cccc(Cl)c4)nn23)CC1` here?
**A.** 2.97 µM (active)

**Q.** What about the EC50 [18] of the same compound?
**A.** 4.13 µM (active)

**Q.** For `Cc1cccc(C2c3[nH]c4ccccc4c3CCN2C(=O)CN2CCOC2=O)n1` (stereo not drawn), which AC50 [19] is on record?
**A.** 7.05 µM (active)
